Each compound was assayed against T1, CCR2 (Homo sapiens, UniProt P41597) (assay: CCR2 calcium activity assay on FLIPR Tetra in HEK-Gqi5 cells stably expressing CCR2).
T1 construct: expressed in transfected cells
T1 sequence (P41597 whole entry, species assumed): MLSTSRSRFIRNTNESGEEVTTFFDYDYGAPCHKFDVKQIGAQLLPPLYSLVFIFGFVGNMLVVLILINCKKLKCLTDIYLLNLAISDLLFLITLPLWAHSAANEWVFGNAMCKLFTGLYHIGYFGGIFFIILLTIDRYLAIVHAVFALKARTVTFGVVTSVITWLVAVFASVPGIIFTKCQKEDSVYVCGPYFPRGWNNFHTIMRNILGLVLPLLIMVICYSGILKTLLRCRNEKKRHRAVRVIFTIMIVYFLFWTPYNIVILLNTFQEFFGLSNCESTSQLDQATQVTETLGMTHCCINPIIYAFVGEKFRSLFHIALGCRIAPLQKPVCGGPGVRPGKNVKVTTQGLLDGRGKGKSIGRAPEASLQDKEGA
Type: cell-based
In the case of `Cn1sc(=O)c2cc(S(=O)(=O)Nc3ccccc3NS(=O)(=O)c3cc(Cl)cc(Cl)c3)ccc21` [N-(2-{[(3,5-dichlorophenyl)sulfonyl]amino}phenyl)-1-methyl-3-oxo-1,3-dihydro-2,1-benzisothiazole-5-sulfonamide], the “CCR2 % ANTAG” value is reported as 95% and the IC50 is reported as 2570 nM. `Cn1sc(=O)c2cc(S(=O)(=O)N3CCC(NS(=O)(=O)c4cccs4)C3)ccc21` (stereo not drawn) [N-{1-[(1-methyl-3-oxo-1,3-dihydro-2,1-benzisothiazol-5-yl)sulfonyl]pyrrolidin-3-yl}thiophene-2-sulfonamide] was tested, and the “CCR2 % ANTAG” value was 44% and the IC50 was 2760 nM. In the case of `Cn1sc(=O)c2cc(S(=O)(=O)Nc3cc4ccccc4cc3NS(=O)(=O)c3cccs3)ccc21` [1-methyl-3-oxo-N-{3-[(2-thienylsulfonyl)amino]-2-naphthyl}-1,3-dihydro-2,1-benzisothiazole-5-sulfonamide], the “CCR2 % ANTAG” value is reported as 96% and the IC50 is reported as 2180 nM. For `Cn1sc(=O)c2cc(S(=O)(=O)Nc3ccccc3NS(=O)(=O)c3ccc(Cl)cc3)ccc21` [N-(2-{[(4-chlorophenyl)sulfonyl]amino}phenyl)-1-methyl-3-oxo-1,3-dihydro-2,1-benzisothiazole-5-sulfonamide], the “CCR2 % ANTAG” value was 99% and the IC50 was 1080 nM. With `COc1cccc(NS(=O)(=O)c2ccc3c(c2)c(=O)sn3C)c1OC` [N-(2,3-dimethoxyphenyl)-1-methyl-3-oxo-1,3-dihydro-2,1-benzisothiazolesulfonamide] the “CCR2 % ANTAG” value was 55% and the IC50 was 3830 nM. With `Cn1sc(=O)c2cc(S(=O)(=O)Nc3ccccc3NS(=O)(=O)c3cccnc3)ccc21` [1-methyl-3-oxo-N-{2-[(pyridin-3-ylsulfonyl)amino]phenyl}-1,3-dihydro-2,1-benzisothiazole-5-sulfonamide] the “CCR2 % ANTAG” value was 77%. In the case of `Cc1cc(NS(=O)(=O)c2ccc3c(c2)c(=O)sn3C)c(C)cc1Cl` [N-(4-chloro-2,5-dimethylphenyl)-1-methyl-3-oxo-1,3-dihydro-2,1-benzisothiazole-5-sulfonamide], the “CCR2 % ANTAG” value is reported as 80% and the IC50 is reported as 1850 nM. `Cn1sc(=O)c2cc(S(=O)(=O)NCC(C)(C)NS(=O)(=O)c3cccs3)ccc21` [1-methyl-N-{2-methyl-2-[(2-thienylsulfonyl)amino]propyl}-3-oxo-1,3-dihydro-2,1-benzisothiazole-5-sulfonamide] was tested, and the “CCR2 % ANTAG” value was 30%. `Cn1sc(=O)c2cc(S(=O)(=O)Nc3cc(Cl)cc4c3OCCO4)ccc21` [N-(7-chloro-2,3-dihydro-1,4-benzodioxin-5-yl)-1-methyl-3-oxo-1,3-dihydro-2,1-benzisothiazole-5-sulfonamide] was tested, and the “CCR2 % ANTAG” value was 63% and the IC50 was 1670 nM. In the case of `Cc1ccc(S(=O)(=O)Nc2ccc(Cl)cc2NS(=O)(=O)c2ccc3c(c2)c(=O)sn3C)cc1` [N-(5-chloro-2-{[(4-methylphenyl)sulfonyl]amino}phenyl)-1-methyl-3-oxo-1,3-dihydro-2,1-benzisothiazole-5-sulfonamide], the “CCR2 % ANTAG” value is reported as 95% and the IC50 is reported as 680 nM. With `Cn1sc(=O)c2cc(S(=O)(=O)Nc3cc(Cl)c(Cl)cc3NS(=O)(=O)c3ccc(Cl)c(C(F)(F)F)c3)ccc21` [N-[4,5-dichloro-2-({[4-chloro-3-(trifluoromethyl)phenyl]sulfonyl}amino)phenyl]-1-methyl-3-oxo-1,3-dihydro-2,1-benzisothiazole-5-sulfonamide] the “CCR2 % ANTAG” value was 84% and the IC50 was 529 nM. `Cn1sc(=O)c2cc(S(=O)(=O)Nc3ccccc3NS(=O)(=O)c3cccc(C(F)(F)F)c3)ccc21` [1-methyl-3-oxo-N-[2-({[3-(trifluoromethyl)phenyl]sulfonyl}amino)phenyl]-1,3-dihydro-2,1-benzisothiazole-5-sulfonamide] was tested, and the “CCR2 % ANTAG” value was 94% and the IC50 was 2210 nM. With `COc1ccc(NS(=O)(=O)c2ccc3c(c2)c(=O)sn3C)c(NS(=O)(=O)c2cccs2)c1` [N-{4-methoxy-2-[(2-thienylsulfonyl)amino]phenyl}-1-methyl-3-oxo-1,3-dihydro-2,1-benzisothiazole-5-sulfonamide] the “CCR2 % ANTAG” value was 60% and the IC50 was 1300 nM.

From patent publication US8524745B2 (Allergan, Inc., priority 2011, dated 2013)
